Laboratory results reported in US20230263822A1, “MODULATION OF FACTOR 11 EXPRESSION” (Ionis Pharmaceuticals, Inc., priority 2008, published 2023).

Test: Hematology assays in cynomolgus monkeys (Example 45)
Format: in vivo
Details: for MCH / MCHC / MCV / RBC count / WBC count / hematocrit / hemoglobin: escalating dose regimen
In short: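 Cynomolgus monkeys (2 male, 3 female per group) dosed subcutaneously with antisense oligonucleotide or PBS, escalating 5, 10, then 25 mg/kg two to three times weekly over 12 weeks; one chronic group held at 10 mg/kg from week 4. Blood sampled weekly; necropsy on day 85.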

ISIS 416864: MOE gapmer, nucleobases 1275 to 1318 of SEQ ID NO: 1 (Table 8) (antisense GGCAGCGGACGGCATTGGTG; MOE gapmer, wing and gap sizes not given here)
MCH (Day 64): 23 pg
MCH (Day 71): 23 pg
MCH (Day 78): 23 pg
MCH (Day 85): 23 pg
basophils (day 8): 0.2%
eosinophils (day 8): 0.7%
lymphocytes (day 8): 45%
monocytes (day 8): 2.1%
neutrophils (day 8): 52%
platelet count (day 8): 438000 µL⁻¹
reticulocytes (day 8): 0.8%
MCH (day 8): 23 pg
MCHC (day 8): 29 g/dL
MCV (day 8): 78 fL
RBC count (day 8): 5.7e+06 µL⁻¹
WBC count (day 8): 11000 µL⁻¹
hematocrit (day 8): 44%
hemoglobin (day 8): 12.7 g/dL
basophils (day 15): 0.2%
eosinophils (day 15): 0.5%
lymphocytes (day 15): 38%
monocytes (day 15): 2.4%
neutrophils (day 15): 59%
platelet count (day 15): 439000 µL⁻¹
reticulocytes (day 15): 0.8%
MCH (day 15): 23 pg
MCHC (day 15): 30 g/dL
MCV (day 15): 74 fL
RBC count (day 15): 5.7e+06 µL⁻¹
WBC count (day 15): 10000 µL⁻¹
hematocrit (day 15): 42%
hemoglobin (day 15): 12.8 g/dL
basophils (day 22): 0.2%
eosinophils (day 22): 0.9%
lymphocytes (day 22): 37%
monocytes (day 22): 2.8%
neutrophils (day 22): 59%
platelet count (day 22): 364000 µL⁻¹
reticulocytes (day 22): 0.9%
MCH (day 22): 23 pg
MCHC (day 22): 29 g/dL
MCV (day 22): 79 fL
RBC count (day 22): 5.3e+06 µL⁻¹
WBC count (day 22): 10000 µL⁻¹
hematocrit (day 22): 42%
hemoglobin (day 22): 12.1 g/dL
basophils (day 29): 0.3%
eosinophils (day 29): 0.9%
lymphocytes (day 29): 51%
monocytes (day 29): 3.4%
neutrophils (day 29): 44%
platelet count (day 29): 397000 µL⁻¹
reticulocytes (day 29): 1.3%
MCH (day 29): 23 pg
MCHC (day 29): 29 g/dL
MCV (day 29): 80 fL
RBC count (day 29): 5.3e+06 µL⁻¹
WBC count (day 29): 10000 µL⁻¹
hematocrit (day 29): 43%
hemoglobin (day 29): 12.1 g/dL
basophils (day 36): 0.3%
eosinophils (day 36): 0.6%
lymphocytes (day 36): 38%
monocytes (day 36): 2.3%
neutrophils (day 36): 58%
platelet count (day 36): 428000 µL⁻¹
reticulocytes (day 36): 1.3%
MCH (day 36): 23 pg
MCHC (day 36): 30 g/dL
MCV (day 36): 76 fL
RBC count (day 36): 5.6e+06 µL⁻¹
WBC count (day 36): 10000 µL⁻¹
hematocrit (day 36): 42%
hemoglobin (day 36): 12.5 g/dL
basophils (day 43): 0.4%
eosinophils (day 43): 0.6%
lymphocytes (day 43): 39%
monocytes (day 43): 2.1%
neutrophils (day 43): 57%
platelet count (day 43): 351000 µL⁻¹
reticulocytes (day 43): 1.1%
MCH (day 43): 22 pg
MCHC (day 43): 29 g/dL
MCV (day 43): 77 fL
RBC count (day 43): 5.5e+06 µL⁻¹
WBC count (day 43): 10000 µL⁻¹
hematocrit (day 43): 42%
hemoglobin (day 43): 12.2 g/dL
basophils (day 50): 0.4%
eosinophils (day 50): 0.7%
lymphocytes (day 50): 46%
monocytes (day 50): 2.9%
neutrophils (day 50): 49%
platelet count (day 50): 419000 µL⁻¹
reticulocytes (day 50): 1.3%
MCH (day 50): 22 pg
MCHC (day 50): 28 g/dL
MCV (day 50): 79 fL
RBC count (day 50): 5.6e+06 µL⁻¹
WBC count (day 50): 12000 µL⁻¹
hematocrit (day 50): 44%
hemoglobin (day 50): 12.1 g/dL
basophils (day 57): 0.3%
eosinophils (day 57): 0.4%
lymphocytes (day 57): 39%
monocytes (day 57): 2.4%
neutrophils (day 57): 57%
platelet count (day 57): 409000 µL⁻¹
reticulocytes (day 57): 1.0%
MCH (day 57): 23 pg
MCHC (day 57): 29 g/dL
MCV (day 57): 77 fL
RBC count (day 57): 5.5e+06 µL⁻¹
WBC count (day 57): 12000 µL⁻¹
hematocrit (day 57): 42%
hemoglobin (day 57): 12.3 g/dL
basophils (day 64): 0.4%
eosinophils (day 64): 0.7%
lymphocytes (day 64): 46%
monocytes (day 64): 2.8%
neutrophils (day 64): 49%
platelet count (day 64): 383000 µL⁻¹
reticulocytes (day 64): 0.8%
MCHC (day 64): 29 g/dL
MCV (day 64): 75 fL
RBC count (day 64): 5.6e+06 µL⁻¹
WBC count (day 64): 11000 µL⁻¹
hematocrit (day 64): 42%
hemoglobin (day 64): 12.1 g/dL
basophils (day 71): 0.4%
eosinophils (day 71): 1.1%
lymphocytes (day 71): 52%
monocytes (day 71): 3.7%
neutrophils (day 71): 42%
platelet count (day 71): 394000 µL⁻¹
reticulocytes (day 71): 1.0%
MCHC (day 71): 28 g/dL
MCV (day 71): 79 fL
RBC count (day 71): 5.6e+06 µL⁻¹
WBC count (day 71): 14000 µL⁻¹
hematocrit (day 71): 44%
hemoglobin (day 71): 12.2 g/dL
basophils (day 78): 0.3%
eosinophils (day 78): 1.2%
lymphocytes (day 78): 46%
monocytes (day 78): 3.7%
neutrophils (day 78): 48%
platelet count (day 78): 366000 µL⁻¹
reticulocytes (day 78): 1.2%
MCHC (day 78): 30 g/dL
MCV (day 78): 74 fL
RBC count (day 78): 5.3e+06 µL⁻¹
WBC count (day 78): 11000 µL⁻¹
hematocrit (day 78): 39%
hemoglobin (day 78): 11.9 g/dL
basophils (day 85): 0.4%
eosinophils (day 85): 1.6%
lymphocytes (day 85): 54%
monocytes (day 85): 3.7%
neutrophils (day 85): 39%
platelet count (day 85): 387000 µL⁻¹
reticulocytes (day 85): 1.5%
MCHC (day 85): 30 g/dL
MCV (day 85): 74 fL
RBC count (day 85): 5.4e+06 µL⁻¹
WBC count (day 85): 12000 µL⁻¹
hematocrit (day 85): 40%
hemoglobin (day 85): 12.3 g/dL
basophils (day −5): 0.2%
eosinophils (day −5): 0.9%
lymphocytes (day −5): 44%
monocytes (day −5): 3.3%
neutrophils (day −5): 51%
platelet count (day −5): 456000 µL⁻¹
reticulocytes (day −5): 0.9%
MCH (day −5): 23 pg
MCHC (day −5): 29 g/dL
MCV (day −5): 79 fL
RBC count (day −5): 5.6e+06 µL⁻¹
WBC count (day −5): 13000 µL⁻¹
hematocrit (day −5): 44%
hemoglobin (day −5): 13.0 g/dL
basophils (day −14): 0.2%
eosinophils (day −14): 1.0%
lymphocytes (day −14): 42%
monocytes (day −14): 2.8%
neutrophils (day −14): 53%
platelet count (day −14): 434000 µL⁻¹
reticulocytes (day −14): 0.9%
MCH (day −14): 23 pg
MCHC (day −14): 29 g/dL
MCV (day −14): 79 fL
RBC count (day −14): 5.5e+06 µL⁻¹
WBC count (day −14): 13000 µL⁻¹
hematocrit (day −14): 43%
hemoglobin (day −14): 12.7 g/dL
